Source: patent US8895590B2, “Epothilone compounds, preparation method and use thereof” (priority 2010, dated 2014)
Like-named read-outs stand apart in the source and are kept apart here.

Experiments:
Test in all cases: Sulforhodamine B (SRB) cytotoxicity test
Assay type in all cases: cell-based
SF-268 (Glioma) = conditions: cells cultured 3 days with compound, read-out: Half Inhibitory Concentration for Bacterial Growth (IC50)
Experimental: (§1) Sulforhodamine B (SRB) test was used for screening the selective compounds of the present invention according to their anti-tumor activity on four different tumor cell lines. In SRB analysis, the cultured cells were trypsinized, counted and diluted to a suitable concentration (5000-7500 cells/100 μl) with a culture medium. The cells were inoculated into a 96-well microtiter plate at 100 μl suspension/well. After 20 hours, the test compounds which were diluted in the culture medium to 2×1000 nM˜2×0.001 nM were added to each well. The cells were then cultured for 3 days, fixed with 100 μl 10% trichloroacetic acid at 4° C. for 1 hour, and then stained with 0.2% SRB/1% acetic acid at room temperature for 20 min. The unbound dye was rinsed with 1% acetic acid. The bound dye was dissolved with 200 μl 10 mM Tris-base. The amount of the bound dye was calculated from OD value detected at the wavelength of 515 nm. The amount of the bound dye was in direct proportion to the total amount of cell proteins. The data was analyzed with Kaleida Graph program, and the half inhibitory concentration (IC50) was calculated. Epothilones D and B were detected in parallel for Comparison. The results of the cytotoxicity experiments on the selected test compounds of the present invention are shown as follows. The other compounds of the present invention may also be detected with a similar method.

[1] = system: NCI/ADR-RES (MDR Breast Cancer); conditions: cells cultured 3 days with compound, read-out: Half Inhibitory Concentration for Tumor Cell Growth (IC50)
Experimental: as §1

NCl-H460 (Lung Cancer) = conditions: cells cultured 3 days with compound, read-out: Half Inhibitory Concentration for Tumor Cell Growth (IC50)
Experimental: as §1

MCF-7 (Breast Cancer) = conditions: cells cultured 3 days with compound, read-out: Half Inhibitory Concentration for Tumor Cell Growth (IC50)
Experimental: as §1

Work on 14-NH2 Epothilone B [II-B] yielded an IC50 (SF-268 (Glioma)) of 0.2 nM, an IC50 [1] of 0.5 nM and an IC50 (NCl-H460 (Lung Cancer)) of 0.2 nM. It also gave an IC50 (MCF-7 (Breast Cancer)) of 0.1 nM.
In the case of 14-NH2 Epothilone D [II-A], the IC50 (SF-268 (Glioma)) is reported as 6 nM, the IC50 [1] is reported as 12 nM and the IC50 (NCl-H460 (Lung Cancer)) is reported as 7 nM. The IC50 (MCF-7 (Breast Cancer)) was 7 nM.
In the case of `C/C1=C/C[C@@H](/C(C)=C/c2csc(C)n2)OC(=O)C[C@H](O)C(C)(C)C(=O)[C@H](C)[C@@H](O)[C@@H](C)CCC1` [Epo D, Epothilone D, reference compound], the IC50 (SF-268 (Glioma)) is reported as 18 nM, the IC50 [1] is reported as 42 nM and the IC50 (NCl-H460 (Lung Cancer)) is reported as 17 nM. It also gave an IC50 (MCF-7 (Breast Cancer)) of 13 nM.
`COC1/C=C(/C)CCC[C@H](C)[C@H](O)[C@@H](C)C(=O)C(C)[C@@H](O)CC(=O)O[C@@H]1/C(C)=C/c1csc(C)n1` (stereo partly drawn) [II-N] showed an IC50 (SF-268 (Glioma); Homo sapiens, 72 h) of 3 nM, an IC50 ([1]; Homo sapiens, 72 h) of 7 nM and an IC50 (NCl-H460 (Lung Cancer); 72 h) of 2 nM. The IC50 (MCF-7 (Breast Cancer); Homo sapiens, MCF7, 72 h) was 2 nM.
In the case of 14-N(CH3)2 Epothilone B [II-L], the IC50 (SF-268 (Glioma)) is reported as 1 nM, the IC50 [1] is reported as 0.1 nM and the IC50 (NCl-H460 (Lung Cancer)) is reported as 0.5 nM. For the same molecule, the IC50 (MCF-7 (Breast Cancer)) was 0.05 nM.
In the case of `C/C(=C\c1csc(C)n1)[C@@H]1C[C@@H]2O[C@]2(C)CCC[C@H](C)[C@H](O)[C@@H](C)C(=O)C(C)(C)[C@@H](O)CC(=O)O1` [Epo B, Epothilone B, reference compound], the IC50 (SF-268 (Glioma)) is reported as 0.8 nM, the IC50 [1] is reported as 5 nM and the IC50 (NCl-H460 (Lung Cancer)) is reported as 0.7 nM. For the same molecule, the IC50 (MCF-7 (Breast Cancer)) was 0.5 nM.
